Data as given in patent publication US20240041767A1, “Mitochondria-Enriched Extracellular Vesicles” (Duquesne University of the Holy Spirit, priority 2022, published 2024).

How the values were obtained:
recipient hCMEC/D3 BECs = experiment: Uptake of MitoT-red-EVs into recipient hCMEC/D3 cells, flow cytometry; type: cell-based, human; details: cells pre-stained with 100 nM MitoT-red for 30 min
Method: Uptake of Mitotracker-labeled naïve and mito-EVs into the recipient hCMEC/D3 cells (isolation of mitochondria-labeled naïve and mito-EVs) hCMEC/D3 BECs and NIH/3T3 fibroblasts were cultured in T175 flasks to confluency. The complete growth medium was removed and cells were washed with 1× PBS. Cells were treated with 100 nM MitoTracker deep red (MitoT-red) diluted in serum-free medium for 30 min in a 37° C. humidified incubator, and following that, the cells were washed with 1× PBS. For naïve EVs, cells were incubated with serum-free medium for 48 h, whereas for mito-EVs, cells were incubated with serum-free medium containing 10 μM Resveratrol for 48 h. Post-incubation, the conditioned medium was collected into polystyrene centrifuge tubes. […] The EV protein content in MitoT-red-sEVs and MitoT-red-m/lEVs were determined using MicroBCA assay, and the samples were stored at −80° C. until further use.
Uptake of hCMEC/D3 BEC- and NIH/3T3 fibroblast-derived MitoT-red-EVs into recipient hCMEC/D3 cells using flow cytometry hCMEC/D3 BECs (P31) were seeded in a 48-well plate at a seeding density of 50,000 cells/well in complete growth medium and cultured for 48 hours in a humidified incubator at 37° C. […] For each sample, an aliquot of a 100 μL cell suspension was analyzed on an Attune N×T Flow cytometer and 10,000 events were recorded in FSC vs. SSC plots. […]

PGC-1α [1] = experiment: PGC-1α protein expression by western blotting in Resveratrol-treated NIH/3T3 fibroblasts; type: cell-based, mouse; details: NIH/3T3 cells, 24 h, vs untreated cells
Method: (§1) Measurement of PGC-1α expression using western blotting (Activation of hCMEC/D3 brain endothelial cells and NIH/3T3 fibroblasts with Resveratrol and preparation of cell lysate for western blotting) hCMEC/D3 brain endothelial cells (BECs) and NIH/3T3 fibroblasts were seeded in a 24-well plate at 100,000 cells/well-seeding density in complete growth medium and cultured for 48 hours in a humidified incubator at 37° C. The cells were treated with different concentrations of Resveratrol ranging from 0.1 to 50 μM in complete growth medium for 24 h. Untreated cells were incubated with a complete growth medium and used as the control for the treatment groups. Post-treatment, the cells were washed with 1× PBS, and the cell suspension was collected in centrifuge tubes. The cell suspension was centrifuged at 300×g for 10 min at 4° C., washed with 1× PBS, and the cell pellet was lysed with 1× RIPA buffer containing 3 μg/mL aprotinin. The total protein concentration in the cell lysates was measured using a BCA assay.
(§2) Detection of PGC1α protein expression in hCMEC/D3 BECs and NIH/3T3 fibroblasts using western blotting A 40 μg cell lysate of untreated and Resveratrol treated hCMEC/D3 BECs and NIH/3T3 fibroblasts were mixed with 4× laemmli buffer and distilled water. The mixture was heated at 95° C. for 5 min using a heating block (Thermo Scientific). Denatured samples and standard molecular weight markers (ladder, 250-25 kD) were separated on a 4-10% gradient sodium dodecyl sulfate polyacrylamide gel at 120 V for 90 min using a PowerPac Basic setup (Bio-Rad Laboratories, Inc.). The gel was washed with deionized water for 30 min, and the proteins were transferred from the gel to a 0.45 μm nitrocellulose membrane using a transfer assembly (Bio-Rad Laboratories, Inc.) at 75 V and 300 mA for 90 min. Following that, the membrane was washed with tris-buffered saline pH 7.4 containing 1% tween 20 (T-TBS) for 45 min and blocked with Intercept blocking buffer (Li-COR Inc., Lincoln, NE) for an hour at room temperature. […]

PGC-1α [2] = experiment: PGC-1α protein expression by western blotting in Resveratrol-treated hCMEC/D3 BECs; type: cell-based, human; details: hCMEC/D3 cells
Method: as §1, §2

Structure (SMILES) | MitoT+ve cells, positive control (recipient hCMEC/D3 BECs) | normalized PGC-1α expression (PGC-1α [1]; 10 μM Resveratrol) | PGC-1α expression (PGC-1α [1]; 50 μM Resveratrol) | normalized PGC-1α expression (densitometry) (PGC-1α [1]; Resveratrol 0.1 to 50 μM) | PGC-1α and GAPDH protein expression (PGC-1α [2]; Resveratrol 10 μM to 50 μM, 24 h) | PGC-1α protein band densities (PGC-1α [2]; Resveratrol 0.1 and 1 μM, 24 h, vs untreated cells) | increase in normalized PGC-1α protein expression (PGC-1α [2]; Resveratrol up to 1 μM, vs untreated cells)
C[N+]1=C(/C=C/C=C/C=C2\N(Cc3ccc(CCl)cc3)c3ccccc3C2(C)C)C(C)(C)c2ccccc21.[Cl-] [MitoT-red] | about 77% | – | – | – | – | – | –
Oc1ccc(C=Cc2cc(O)cc(O)c2)cc1 [Resveratrol] | – | statistically significant (p<0.01) increase | considerable (p=0.07) decrease | concentration-dependent increase in PGC-1α expression | gradual and considerable decrease | slight increase | 5%
